# Measured values published in patent US20260184707A1, “PHARMACEUTICAL COMPOUNDS FOR THE TREATMENT OF COMPLEMENT MEDIATED DISORDERS” (ALEXION PHARMACEUTICALS, INC., priority 2022, published 2026).
# pIC50: −log10 of the molar value.
# Target: T1, Human complement C1s enzyme (Homo sapiens, UniProt P09871)
# T1 construct: purified from human serum, Complement Technology, Inc; purchased Complement Technology, Inc; host or cells: human serum (plasma-derived native protein)
# T1 sequence (P09871 438-688 limits assumed): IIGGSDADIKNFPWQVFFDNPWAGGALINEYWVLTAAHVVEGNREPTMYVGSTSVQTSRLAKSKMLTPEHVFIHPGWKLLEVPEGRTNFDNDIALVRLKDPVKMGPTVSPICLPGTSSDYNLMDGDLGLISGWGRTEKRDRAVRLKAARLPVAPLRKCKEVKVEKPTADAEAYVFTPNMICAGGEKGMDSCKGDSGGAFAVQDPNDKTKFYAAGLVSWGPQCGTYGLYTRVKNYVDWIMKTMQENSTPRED
# T1 sequence (P09871 16-437 partner limits assumed): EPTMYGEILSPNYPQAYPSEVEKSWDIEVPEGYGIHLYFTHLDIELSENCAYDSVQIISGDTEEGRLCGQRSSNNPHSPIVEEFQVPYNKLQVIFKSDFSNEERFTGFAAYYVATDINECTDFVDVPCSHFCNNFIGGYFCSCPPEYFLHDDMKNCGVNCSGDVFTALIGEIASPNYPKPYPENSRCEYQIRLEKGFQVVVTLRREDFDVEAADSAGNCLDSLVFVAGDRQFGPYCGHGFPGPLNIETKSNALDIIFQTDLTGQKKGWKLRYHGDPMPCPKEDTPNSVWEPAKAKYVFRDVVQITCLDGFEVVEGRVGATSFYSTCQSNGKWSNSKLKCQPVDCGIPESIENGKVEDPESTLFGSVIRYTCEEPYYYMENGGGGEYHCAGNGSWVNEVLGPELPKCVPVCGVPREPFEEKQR
# Assay: Human C1s enzyme assay
# Type: biochemical
# Conditions: human complement C1s enzyme 1.16 nM, substrate Z-L-Lys-SBzl, A405; read-out: IC50 (Stars)
# Summary of the method: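 Serum-purified human C1s (1.16 nM final) preincubated 5 min at room temperature with compound in 50 mM Tris, 1 M NaCl, pH 7.5. Z-L-Lys-SBzl and DTNB added at 100 μM each; A405 recorded every 30 s. IC50 from nonlinear regression of reaction rates versus compound concentration.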
row,pIC50,Compound
1,> 7.00,"O=C(Cn1c(-c2ccccc2)ncc(NCCCc2ccc3sc4ccccc4c3c2)c1=O)NCc1cc2cnccc2[nH]1 [Compound 64, N-((1H-pyrrolo[3,2-c]pyridin-2-yl)methyl)-2-(5-((3-(dibenzo [b,d]thiophen-2-yl)propyl)-amino)-6-oxo-2-phenylpyrimi-din-1(6H)-yl)acetamide]"
2,< 6.00,"O=C(Cn1c(-c2ccccc2)ncc(N2Cc3ccccc3C2)c1=O)NCc1cc2cnccc2[nH]1 [Compound 184, N-((1H-pyrrolo[3,2-c]pyridine-2-yl)methyl)-2-(5-(isoindolin-2-yl)-6-oxo-2-phenylpyrimidin-1(6H)-yl)acetamide]"
3,> 7.00,"CO[C@@H]1CO[C@H]2[C@@H]1OC[C@H]2Oc1ccc(CCCNc2cnc(-c3ccccc3)n(CC(=O)NCc3cc4cnccc4[nH]3)c2=O)cc1 [Compound 192, N-((1H-pyrrolo[3,2-c]pyridine-2-yl)methyl)-2-(5-((3-(4-(((3R,3aR,6R,6aR)-6-methoxyhexahydrofuro[3,2-b]furan-3-yl)oxy)phenyl)propyl)amino)-6-oxo-2-phenylpyrimidin-1(6H)-yl)acetamide]"
4,> 7.00,"O=C(Cn1c(-c2ccccc2)ncc(NC(=O)c2ccc(-c3ccccc3)cc2F)c1=O)NCc1cc2cnccc2[nH]1 [Compound 166, N-(1-(2-(((1H-pyrrolo[3,2-c]pyridine-2-yl)methyl)amino)-2-oxoethyl)-6-oxo-2-phenyl-1,6-dihydropyrimidin-5-yl)-3-fluoro-[1,1′-biphenyl]-4-carboxamide]"
5,< 6.00,"O=C(Cn1c(-c2ccccc2)ncc(NC(=O)c2cccc(-c3ncco3)c2)c1=O)NCc1cc2cnccc2[nH]1 [Compound 222, N-(1-(2-(((1H-pyrrolo[3,2-c]pyridine-2-yl)methyl)amino)-2-oxoethyl)-6-oxo-2-phenyl-1,6-dihydropyrimidin-5-yl)-3-(oxazol-2-yl)benzamide]"
6,6.00 to 7.00,"Cc1ncc(-c2ncc(N[C@H](C)c3ccc4oc5ccccc5c4c3)c(=O)n2CC(=O)NCc2cc3cnccc3[nH]2)cn1 [Compound 391, (R)-N-((1H-pyrrolo[3,2-c]pyridin-2-yl)methyl)-2-(5-((1-(dibenzo[b,d]furan-2-yl)ethyl)-amino)-2′-methyl-6-oxo-[2,5′-bipyrimidin]-1(6H)-yl)acet-amide]"
7,> 7.00,"C[C@@H](Nc1ncc(-c2ccccc2F)n(CC(=O)NCc2cc3cnccc3[nH]2)c1=O)c1ccc(-c2ccccc2F)cc1 [Compound 418, (R)—N-((1H-Pyrrolo[3,2-c]pyridine-2-yl)methyl)-2-(3-((1-(2′-fluoro-[1,1′-biphenyl]-4-yl)ethyl)amino)-6-(2-fluorophenyl)-2-oxopyrazin-1(2H)-yl)acetamide]"
8,> 7.00,"O=C(Cn1c(-c2ccccc2)ncc(NC(=O)c2ccc3c(c2)-c2ccccc2C3(F)F)c1=O)NCc1cc2cnccc2[nH]1 [Compound 78, N-(1-(2-(((1H-pyrrolo[3,2-c]pyridin-2-yl)methyl)amino)-2-oxoethyl)-6-oxo-2-phenyl-1,6-dihydropyrimidin-5-yl)-9,9-difluoro-9H-fluorene-3-carbox-amide]"
9,> 7.00,"C[C@H](Nc1cnc(-c2cnn(C)c2)n(CC(=O)NCc2cc3cnccc3[nH]2)c1=O)c1ccc2oc3ccccc3c2c1 [Compound 283, (S)-N-((1H-pyrrolo[3,2-c]pyr-idin-2-yl)methyl)-2-(5-((1-(dibenzo[b,d]furan-2-yl)ethyl)-amino)-2-(1-methyl-1H-pyr-azol-4-yl)-6-oxopyrimidin-1(6H)-yl)acetamide]"
10,> 7.00,"O=C(Cn1c(-c2ccccc2)ncc(NC(=O)c2ncc(-c3ccccc3)s2)c1=O)NCc1cc2cnccc2[nH]1 [Compound 170, N-(1-(2-(((1H-pyrrolo[3,2-c]pyridin-2-yl)methyl)amino)-2-oxoethyl)-6-oxo-2-phenyl-1,6-dihydropyrimidin-5-yl)-5-phen-ylthiazole-2-carboxamide]"
11,< 6.00,"O=C(Cn1c(-c2ccccc2)ncc(NC(=O)OCc2ccccc2)c1=O)NCc1cc2cnccc2[nH]1 [Compound 31, benzyl (1-(2-(((1H-pyrrolo[3,2-c]pyridin-2-yl)methyl)amino)-2-oxoethyl)-6-oxo-2-phenyl-1,6-dihydropyrimidin-5-yl)-carbamate]"
12,> 7.00,"C[C@@H](Nc1cnc(-c2ccccc2)n(CC(=O)NCc2cc3cnccc3[nH]2)c1=O)c1ccc(Oc2ccccc2)cc1 [Compound 61, (R)—N-((1H-pyrrolo[3,2-c]pyridine-2-yl)methyl)-2-(6-oxo-5-((1-(4-phenoxyphenyl)ethyl)amino)-2-phenylpyrimidin-1(6H)-yl)acetamide]"
13,> 7.00,"O=C(Cn1c(-c2ccccc2)cnc(NC(=O)c2ccc3c(c2)-c2ccccc2C3(F)F)c1=O)NCc1cc2cnccc2[nH]1 [Compound 179, N-(4-(2-(((1H-pyrrolo[3,2-c]pyridin-2-yl)methyl)amino)-2-oxoethyl)-3-oxo-5-phenyl-3,4-dihydropyrazin-2-yl)-9,9-difluoro-9H-fluorene-3-carbox-amide]"

# The remaining lines, values behind:
row,Compound,pIC50
1,"O=C(Cn1cncc(NCc2cc3ccccc3o2)c1=O)NCc1cc2cnccc2[nH]1 [Compound 486, N-((1H-pyrrolo[3,2-c]pyridin-2-yl)methyl)-2-(5-((benzofuran-2-ylmethyl)amino)-6-oxopyr-imidin-1(6H)-yl)acetamide]",> 7.00
2,"C[C@@H](Nc1cnc(N2CCn3c(nnc3C(F)(F)F)C2)n(CC(=O)NCc2cc3cnccc3[nH]2)c1=O)c1ccc2oc3ccccc3c2c1 [Compound 313, (R)-N-((1H-pyrrolo[3,2-c]pyridin-2-yl)methyl)-2-(5-((1-(dibenzo[b,d]furan-2-yl)ethyl)-amino)-6-oxo-2-(3-(trifluoro-methyl)-5,6-dihydro-[1,2,4]triazolo[4,3-a]pyrazin-7(8H)-yl)pyrimidin-1(6H)-yl)acet-amide]",6.00 to 7.00
3,"C[C@@H](Nc1cnc(N2CCCCC2)n(CC(=O)NCc2cc3cnccc3[nH]2)c1=O)c1ccc(Oc2ccccc2)cc1 [Compound 448, (R)-N-((1H-pyrrolo[3,2-c]pyridin-2-yl)methyl)-2-(6-oxo-5-((1-(4-phenoxyphenyl)-ethyl)amino)-2-(piperidin-1-yl)pyrimidin-1(6H)-yl)acet-amide]",6.00 to 7.00
4,"C[C@H](Nc1cnc(-c2ccc(O[C@@H]3CO[C@H]4[C@@H]3OC[C@H]4O)cc2)n(CC(=O)NCc2cc3cnccc3[nH]2)c1=O)c1ccc2oc3ccccc3c2c1 [Compound 288, N-((1H-pyrrolo[3,2-c]pyridin-2-yl)methyl)-2-(5-(((S)-1-(dibenzo[b,d]furan-2-yl)ethyl)-amino)-2-(4-(((3R,3aR,6R, 6aR)-6-hydroxyhexahydrofuro [3,2-b]furan-3-yl)oxy)phenyl)-6-oxopyrimidin-1(6H)-yl)acet-amide]",> 7.00
5,"C[C@@H](Nc1cn(C)c(=O)n(CC(=O)NCc2cc3cnccc3[nH]2)c1=O)c1ccc2oc3ccccc3c2c1 [Compound 366, (R)—N-((1H-pyrrolo[3,2-c]pyridine-2-yl)methyl)-2-(5-((1-(dibenzo[b,d]furan-2-yl)ethyl)amino)-3-methyl-2,6-dioxo-3,6-dihydropyrimidin-1(2H)-yl)acetamide]",< 6.00
6,"Cc1cnc(CNc2ncc(N3CCCCC3)n(CC(=O)NCc3cc4cnccc4[nH]3)c2=O)o1 [Compound 474, N-((1H-pyrrolo[3,2-c]pyridin-2-yl)methyl)-2-(3-(((5-methyl-oxazol-2-yl)methyl)amino)-2-oxo-6-(piperidin-1-yl)pyr-azin-1(2H)-yl)acetamide]",> 7.00
7,"C[C@@H](Nc1c[nH]c(=O)n(CC(=O)NCc2cc3cnccc3[nH]2)c1=O)c1ccc2oc3ccccc3c2c1 [Compound 338, (R)-N-((1H-pyrrolo[3,2-c]pyridin-2-yl)methyl)-2-(5-((1-(dibenzo[b,d]furan-2-yl)ethyl)-amino)-2,6-dioxo-3,6-dihydro-pyrimidin-1(2H)-yl)acetamide]",6.00 to 7.00
8,"C[C@@H](Nc1cnc(N2CCCC2=O)n(CC(=O)NCc2cc3cnccc3[nH]2)c1=O)c1ccc2oc3ccccc3c2c1 [Compound 400, (R)-N-((1H-pyrrolo[3,2-c]pyridin-2-yl)methyl)-2-(5-((1-(dibenzo[b,d]furan-2-yl)ethyl)-amino)-6-oxo-2-(2-oxopyr-rolidin-1-yl)pyrimidin-1(6H)-yl)acetamide]",> 7.00
9,"C[C@@H](Nc1cncn(CC(=O)NCc2cc3cnccc3[nH]2)c1=O)c1ccc2c(c1)-c1ccccc1C2(F)F [Compound 346, (R)-N-((1H-pyrrolo[3,2-c]pyridin-2-yl)methyl)-2-(5-((1-(9,9-difluoro-9H-fluoren-3-yl)-ethyl)amino)-6-oxopyrimidin-1(6H)-yl)acetamide]",6.00 to 7.00
10,"Cc1ncc(N[C@H](C)c2ccc3oc4ccccc4c3c2)c(=O)n1C(C)C(=O)NCc1cc2cnccc2[nH]1 (stereo partly drawn) [Compound 404, N-((1H-pyrrolo[3,2-c]pyridin-2-yl)methyl)-2-(5-(((R)-1-(dibenzo[b,d]furan-2-yl)ethyl)-amino)-2-methyl-6-oxopyrimi-din-1(6H)-yl)propanamide]",< 6.00
